Data as given in PubChem BioAssay AID248 (DTP/NCI, 2004).
Values joined by “and” are separate entries in the source; they are usually repeats but may differ in a detail not shown here. Equal entries are not always repeated. Inconclusive results and toxic doses are left out. Cut-off read from the data, not from the text of the source: active = T/C of 150% or more; inactive = T/C below 125%.

System: L1210 leukemia ip in BDF1 mice, survival T/C
Assay: NCI In Vivo Anticancer Drug Screen. Data for tumor model L1210 Leukemia (intraperitoneal) in B6D2F1 (BDF1) mice
Settings: endpoint: mean survival time, higher = longer survival
Summary of the method: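 Antitumor effect is assessed in tumor-bearing animals. Survival in the compound arm is compared with a vehicle-dosed control arm and expressed as their quotient.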

[1] = dose: 100.0 mg/kg/injection, schedule: Q01DX001 (ip), vehicle: carboxymethylcellulose (CMC)
[2] = dose: 100.0 mg/kg/injection, schedule: Q04DX003 (ip), vehicle: Klucel (hydroxypropylcellulose) (HPC)
[3] = dose: 200.0 mg/kg/injection, schedule: Q01DX001 (ip), vehicle: carboxymethylcellulose (CMC)
[4] = dose: 200.0 mg/kg/injection, schedule: Q04DX003 (ip), vehicle: Klucel (hydroxypropylcellulose) (HPC)
[5] = dose: 400.0 mg/kg/injection, schedule: Q01DX001 (ip), vehicle: carboxymethylcellulose (CMC)
[6] = dose: 400.0 mg/kg/injection, schedule: Q04DX003 (ip), vehicle: Klucel (hydroxypropylcellulose) (HPC)
[7] = dose: 100.0 mg/kg/injection, schedule: Q01DX009 (ip), vehicle: Klucel (hydroxypropylcellulose) (HPC)
[8] = dose: 200.0 mg/kg/injection, schedule: Q01DX009 (ip), vehicle: Klucel (hydroxypropylcellulose) (HPC)
[9] = dose: 50.0 mg/kg/injection, schedule: Q01DX009 (ip), vehicle: saline with Tween-80
[10] = dose: 100.0 mg/kg/injection, schedule: Q01DX009 (ip), vehicle: saline with Tween-80
[11] = dose: 200.0 mg/kg/injection, schedule: Q01DX009 (ip), vehicle: saline with Tween-80
[12] = dose: 100.0 mg/kg/injection, schedule: Q04DX002 (ip), vehicle: Klucel (hydroxypropylcellulose) (HPC)
[13] = dose: 200.0 mg/kg/injection, schedule: Q04DX002 (ip), vehicle: Klucel (hydroxypropylcellulose) (HPC)
[14] = dose: 400.0 mg/kg/injection, schedule: Q04DX002 (ip), vehicle: Klucel (hydroxypropylcellulose) (HPC)
[15] = dose: 100.0 mg/kg/injection, schedule: Q04DX003 (ip), vehicle: saline with Tween-80
[16] = dose: 200.0 mg/kg/injection, schedule: Q04DX003 (ip), vehicle: saline with Tween-80
[17] = dose: 400.0 mg/kg/injection, schedule: Q01DX009 (ip), vehicle: saline with Tween-80
[18] = dose: 400.0 mg/kg/injection, schedule: Q01DX009 (ip), vehicle: Klucel (hydroxypropylcellulose) (HPC)
[19] = dose: 400.0 mg/kg/injection, schedule: Q04DX003 (ip), vehicle: saline with Tween-80
[20] = dose: 100.0 mg/kg/injection, schedule: Q04DX002 (ip), vehicle: saline with Tween-80
[21] = dose: 100.0 mg/kg/injection, schedule: Q01DX001 (ip), vehicle: Klucel (hydroxypropylcellulose) (HPC)
[22] = dose: 400.0 mg/kg/injection, schedule: Q01DX001 (ip), vehicle: Klucel (hydroxypropylcellulose) (HPC)

Measured: T/C

ClCCC[S][Pb]([c]1ccccc1)([c]1ccccc1)[c]1ccccc1
inactive: dose: 25.0 mg/kg/injection, schedule: Q04DX002 (sc), vehicle: olive oil, sesame oil, peanut oil 100 % of control | dose: 50.0 mg/kg/injection, schedule: Q04DX002 (sc), vehicle: olive oil, sesame oil, peanut oil 116 % of control

O=C1CCC/C1=C/c1ccccc1
inactive: [1] 97 % of control | [2] 93 % of control | [3] 91 % of control | [4] 95 % of control | [5] 91 % of control | [6] 88 % of control

CCOC(=O)c1c[nH]c2c(ccc3cc(OC)ccc32)c1=O
inactive: dose: 50.0 mg/kg/injection, schedule: Q01DX009 (ip), vehicle: Klucel (hydroxypropylcellulose) (HPC) 101 % of control | [7] 97 % of control | [8] 97 % of control

OC(c1ccccc1)C1(O)C2CCC1C2 (configuration not stated)
inactive: dose: 75.0 mg/kg/injection, schedule: Q04DX002 (ip), vehicle: Klucel (hydroxypropylcellulose) (HPC) 96 % of control | dose: 150.0 mg/kg/injection, schedule: Q04DX002 (ip), vehicle: Klucel (hydroxypropylcellulose) (HPC) 104 % of control | dose: 300.0 mg/kg/injection, schedule: Q04DX002 (ip), vehicle: Klucel (hydroxypropylcellulose) (HPC) 96 % of control

O=[N+]([O-])Cc1c2ccccc2nc2ccccc12
inactive: [9] 87 % of control | [10] 87 % of control | [11] 87 % of control

C=C1C[C@]23C[C@H](O)[C@]4(O)[C@@]5(C)C[C@H](O)C[C@]46C(C2[C@@H]1[C@@H](OC(=O)/C(C)=C/C)[C@@H](OC(=O)/C(C)=C/C)[C@H]36)N(C)C5 (some centres not stated)
inactive: dose: 50.0 mg/kg/injection, schedule: Q01DX001 (ip), vehicle: carboxymethylcellulose (CMC) 95 % of control | [1] 106 % of control | [3] 106 % of control | [5] 114 % of control

O=C(Nc1ccc(Cl)cc1)O/C(=C(/OC(=O)Nc1ccc(Cl)cc1)c1ccc(Cl)cc1)c1ccc(Cl)cc1
inactive: [12] 96 % of control | [13] 92 % of control | [14] 89 % of control

COc1ccc(C(C)N=CC(C)(C)C)cc1 (configuration not stated)
inactive: [15] 101 % of control | [16] 101 % of control

CCOC(=O)C(CC(C)C)NC(=O)CCCCSc1ncnc2nc[nH]c12 (configuration not stated)
inactive: dose: 25.0 mg/kg/injection, schedule: Q01DX009 (ip), vehicle: saline with Tween-80 110 % of control | dose: 25.0 mg/kg/injection, schedule: Q01DX009 (oral), vehicle: saline with Tween-80 100 % of control | [9] 112 % of control | dose: 50.0 mg/kg/injection, schedule: Q01DX009 (oral), vehicle: saline with Tween-80 92 % of control | [10] 100 % of control | dose: 100.0 mg/kg/injection, schedule: Q01DX009 (oral), vehicle: saline with Tween-80 100 % of control | [11] 98 % of control | dose: 200.0 mg/kg/injection, schedule: Q01DX009 (oral), vehicle: saline with Tween-80 98 % of control | [17] 115 % of control | dose: 400.0 mg/kg/injection, schedule: Q01DX009 (oral), vehicle: saline with Tween-80 107 % of control | dose: 800.0 mg/kg/injection, schedule: Q01DX009 (oral), vehicle: saline with Tween-80 111 % of control

COC(=O)CC(c1ccc(OC)cc1)C(CC(=O)OC)c1ccc(OC)cc1 (configuration not stated)
inactive: [2] 98 % of control | [4] 93 % of control | [6] 104 % of control

CCC(=O)n1cc2ccc([N+](=O)[O-])cc2n1
inactive: [12] 112 % of control | [13] 104 % of control | [14] 101 % of control

C[n+]1ccc(/C=C/c2ccnc3c(O)cccc23)c2ccccc21
inactive: dose: 15.0 mg/kg/injection, schedule: Q01DX001 (ip), vehicle: saline 112 % of control

N#CC1CC2([N+](=O)[O-])c3ccccc3C1c1ccccc12 (configuration not stated)
inactive: [7] 96 % of control | [2] 105 % of control | dose: 100.0 mg/kg/injection, schedule: Q04DX003 (ip), vehicle: saline 105 % of control | [8] 102 % of control | [4] 108 % of control | dose: 200.0 mg/kg/injection, schedule: Q04DX003 (ip), vehicle: saline 108 % of control | [18] 94 % of control | [6] 102 % of control | dose: 400.0 mg/kg/injection, schedule: Q04DX003 (ip), vehicle: saline 102 % of control

CCC(N)c1ccc2c3c(cccc13)CC2 (configuration not stated)
inactive: [10] 88 % of control | [15] 93 % of control | [11] 90 % of control | [16] 90 % of control | [17] 93 % of control | [19] 90 % of control

CS(=O)(=O)OCCC(COS(C)(=O)=O)S(=O)(=O)CCCOc1ccccc1-c1ccccc1 (configuration not stated)
inactive: [9] 94 % of control | [10] 94 % of control | [11] 94 % of control

O=C1C(=O)c2ccccc2-c2ccccc21.O=C1C(=O)c2ccccc2-c2ccccc21.[Hg]
inactive: dose: 6.25 mg/kg/injection, schedule: Q04DX003 (ip), vehicle: saline with Tween-80 95 % of control

O=C1OC(/C=C/c2ccccc2)=NC/1=C\c1cc(Br)ccc1O
inactive: [20] 104 % of control | dose: 200.0 mg/kg/injection, schedule: Q04DX002 (ip), vehicle: saline with Tween-80 95 % of control and 97 % of control | dose: 400.0 mg/kg/injection, schedule: Q04DX002 (ip), vehicle: saline with Tween-80 104 % of control and 114 % of control

CC(=O)Nc1c(Cl)cc(I)cc1Cl
inactive: [7] 103 % of control | [8] 103 % of control | [18] 97 % of control

CCCCCCCCCCCCCCCCCCSCCOCCSCCCCCCCCCCCCCCCCCC
inactive: [21] 87 % of control | [22] 88 % of control

Cc1cccc(C)c1NC(=O)N1CCN(C)CC1
inactive: dose: 25.0 mg/kg/injection, schedule: Q04DX002 (ip), vehicle: saline with Tween-80 108 % of control | dose: 50.0 mg/kg/injection, schedule: Q04DX002 (ip), vehicle: saline with Tween-80 111 % of control | [7] 108 % of control | [12] 88 % of control | [20] 101 % of control | [8] 103 % of control

OC(O)C(F)(F)F
inactive: [10] 109 % of control | [15] 111 % of control | [11] 121 % of control | [16] 104 % of control | [17] 97 % of control | [19] 105 % of control

O=[N+]([O-])c1ccc(SCc2ccc(Br)cc2)c([N+](=O)[O-])c1
inactive: [1] 98 % of control | [3] 104 % of control | [5] 95 % of control

O=[N+]([O-])c1cc2c(cc1Br)-c1ccccc1/C2=N\O
inactive: [1] 103 % of control | [3] 101 % of control | [5] 97 % of control

CCOC(=O)c1cnc(SC)nc1Nc1ccc(Cl)c(Cl)c1
inactive: [21] 97 % of control | dose: 200.0 mg/kg/injection, schedule: Q01DX001 (ip), vehicle: Klucel (hydroxypropylcellulose) (HPC) 96 % of control | [22] 97 % of control

Cn1c(=O)c2[nH]c(Br)nc2n(C)c1=O
inactive: [7] 90 % of control | [2] 98 % of control | [8] 93 % of control | [4] 111 % of control | [6] 106 % of control
